Some results are limits rather than exact numbers.

In turn, `O=C(NCCN1CCCC1)c1ccc(-c2ccc3nnn(Cc4ccc5ncccc5c4)c3n2)cc1` registered a melting point of 135 to 137 °C.

As for `CCOC(=O)c1ccc(NCCc2cccc3ccccc23)cc1`, the melting point lay in the range of 104 to 106 °C.

For `COc1cccc(OC)c1-c1ccccc1P(C1CCCCC1)C1CCCCC1`, the melting point fell in the range of 163 to 165 °C.

Consider `CN(C)c1cc(CC(C#N)=CNc2ccccc2)cc(N(C)C)c1C(C)(C)C`, for which the melting point came out at 150 °C.

Regarding `CC(C)n1nc(-c2c(-c3ccccc3)nn3ccc(OCCN4CCCC4)cc23)ccc1=O`, the melting point fell in the range of 149 to 150 °C.

Compound `Cc1c(C(=O)N(CC(=O)O)c2ccc(OCC(C)(C)C)c(C#N)c2)cnn1-c1ccc(F)cc1` returned a melting point of 105 to 110 °C.

In turn, `CCC=C(C)C(O)C(CC)CC` (centres undefined) returned a melting point of 92 to 93 °C.

`CC(c1ccc2c(c1)[nH]c1ccccc12)n1ccnc1` (centres undefined): the melting point was in the range of 157 to 158 °C.

The compound `CCCC(=O)c1cc2nc(C(=O)OCC)n(C)c2cc1C` gave a melting point of 106 to 108 °C.

For the compound `Cc1ccc(OCn2cc(Cl)cnc2=O)cc1`, the melting point stood at 186 °C.

`CCOc1ccccc1C(=O)Nc1ccc(C(=O)N2CCC(F)(F)/C(=C\C(=O)N3CCOCC3)c3ccccc32)cc1`: the melting point is 144 to 147 °C.

As for `Cc1nc2c(c(=O)[nH]1)-c1ccc(Cl)cc1C(c1ccccc1F)=NC2`, the melting point was in the range of 262 to 264 °C.

The compound `Fc1ccc2c(c1F)OCc1csc(=S)n1-2` yielded a melting point of 163 to 167 °C.

Turning to `C=CCN1CCN(c2cc3c(cc2F)c(=O)c(C(=O)O)cn3CC=C)CC1`, the melting point was determined as 186 °C.

`CC(=O)NCc1nc(-c2ccccc2)c(-c2ccccc2)o1` came in with a melting point of 58 to 60 °C.

`CCOC(=O)c1c(Cn2cncn2)nc2sc3c(c2c1-c1ccc(OC)c(OC)c1)CN(C(=O)OCc1ccccc1)CC3`: the melting point lay in the range of 169 to 170 °C.

The compound `CCCCCCNC(=O)Nc1ccccc1C(=O)NCCC1CCN(C(c2ccccc2)c2ccccc2)CC1` returned a melting point of 143 to 144 °C.

For `O=C(O)CSC12CC3CC(CC(C3)C1)C2`, the melting point fell in the range of 71 to 73 °C.

The compound `O=C(O)Cn1cc(Cc2nc3c(F)c(F)cc(F)c3s2)c2cc(Oc3ccccc3)ccc21` yielded a melting point of 128 to 130 °C.

Compound `CC(C)Nc1cccnc1N1CCN(C(=O)c2ccc(C(=O)NCC3CCCO3)cn2)CC1` (centres undefined) yielded a melting point of 108 to 110 °C.

On to `COc1cc2c(cn1)OCC21C(=O)N(C(c2ccccc2)c2ccccc2)c2ccccc21` (centres undefined), for which the melting point lay within 177 to 178 °C.

`CCC(=O)NCCC1CCc2cc(Br)c3c(c21)CCCO3` (centres undefined) came in with a melting point of 114 to 116 °C.

With `CCOC(=O)C1=C(C)NC(C)=C(C(=O)OCC=CC=Cc2ccccc2)C1c1cccc([N+](=O)[O-])c1` (centres undefined), the melting point was in the range of 143 to 147 °C.

Take `CNc1cc(SC2CCN(C)CC2)ccc1[N+](=O)[O-]`: the melting point amounted to 90 °C.

The compound `Cn1ncc(C2=CC(=O)CCC2)c1S(N)(=O)=O` returned a melting point of 160 to 165 °C.

The compound `O=C(O)CCCCCCCCC1CO1` (centres undefined) showed a melting point of 48 °C.

Compound `Cc1noc(NS(=O)(=O)c2ccccc2-c2ccc(-c3ccncn3)cc2)c1C` showed a melting point of 211 to 214 °C.

With `N#CCCOc1ccc(Oc2ccccc2)cc1`, the melting point fell in the range of 81 to 83 °C.

For the compound `O=C(Nc1ccc(-n2nc(C(F)(F)F)cc2OC(F)F)cc1)c1cccnc1F`, the melting point lay in the range of 149 to 150 °C.

As for `FC(F)(F)c1cc(-c2nnn[nH]2)cc(C(F)(F)F)c1`, the melting point was 179 °C.

As to `CCOP(=O)(OCC)C(O)=C1CCc2cc(CC3CCCC3)c(Cl)cc21`, the melting point amounted to 126 °C.

Compound `CC(C)CC(NC(=O)COc1cccc2ccccc12)C(=O)NC(Cc1ccccc1)C(=O)CSCc1ccco1` (centres undefined) yielded a melting point of 118 to 120 °C.

Regarding `Cc1cc2c(cc1C)-n1cnnc1C=C(c1ccc(-n3c(C)nc4cnccc43)cc1)N2`, the melting point fell in the range of 302 to 304 °C.

`CO/N=C/C1=NNC(=O)N(/N=C/c2cccnc2)C1` gave a melting point of 237 to 238 °C.

Compound `CC(C)COC(=O)c1ccc(OCC(=NO)c2ccc3c(c2)C(C)(C)CCC3(C)C)cc1O` returned a melting point of 96 °C.

Turning to `C[C@@H]1COC(=O)N1c1nc(-c2ccc(Br)cc2)cs1`, the melting point lay in the range of 189 to 190 °C.

For the compound `Cc1c(C(=O)Nc2ccc(OCCO)cc2)nnn1Cc1ccc(Cl)c(Cl)c1`, the melting point came to 140 °C.

For `COC(=O)C=C(Nc1coc2cc(OC)ccc2c1=O)C(=O)OC`, the melting point lay in the range of 134 to 138 °C.

As for `Cc1oc2c(NC(=O)c3c(Cl)ccc(O)c3Cl)cccc2c1C`, the melting point was 192 to 194 °C.

Consider `NCCCCCCCCNc1nc(N)nc2c1ncn2C1C=CC(CO)C1` (centres undefined), for which the melting point lay in the range of 125 to 127 °C.

Compound `CC(c1oc2ccccc2c(=O)c1-c1cccc(F)c1)n1nc(-c2ccc3c(c2)OCCCO3)c2c(N)ncnc21` (centres undefined) yielded a melting point of 234 to 237 °C.

Compound `NC(=O)N1CC(Oc2ccc(Br)cc2)C1` showed a melting point of 193 to 194 °C.

`CCOC(=O)c1ccc(-c2coc(-c3ccc(Cl)cc3)n2)cc1` gave a melting point of 153 to 154 °C.

In turn, `O=C(C=Cc1cc(O)c(O)cc1O)OCCc1ccccc1` came in with a melting point of 146 to 149 °C.

`NC(=O)CNC(=O)c1cc(Cl)nc(Cl)c1` returned a melting point of 211 to 213 °C.

Compound `CCOC(=O)Cn1c(-c2ccccc2Cl)nc2cccnc21` showed a melting point of 64 to 66 °C.

In turn, `COC(=O)c1cccc(Cn2c(C(=O)NC(N)=S)cc3cc(C)cc(C)c32)c1` had a melting point of 198 to 199 °C.

`O=Cc1ccc(CBr)c(Cl)c1` yielded a melting point of 64 to 66 °C.

`Cn1cnc(COc2nn3c(-c4cnccn4)nnc3cc2-c2ccccc2)n1` returned a melting point of 257 to 258 °C.

`Oc1ccc(CCNC[C@H](O)COc2ccccc2)cc1`: the melting point fell in the range of 118 to 119 °C.

Regarding `N#Cc1ccccc1C1CNC([N+](=O)[O-])CCN1` (centres undefined), the melting point is 101 °C.

Regarding `C=CCNC(=O)COc1ccc(C2=NNC(=O)CC2)cc1Cl`, the melting point lay in the range of 145 to 146 °C.

Compound `CCCCc1nn(-c2ccccc2Cl)c(=O)n1Cc1ccc(-c2ccccc2S(=O)(=O)NC(=O)c2ccc(F)cc2)cc1` yielded a melting point of 118 to 120 °C.

Compound `COCCOc1cc(N)c(Cl)cc1C(=O)O` showed a melting point of 119 to 120 °C.

Compound `COC(=O)c1nc(Cl)c(Cl)c(N)c1OC` showed a melting point of 119 to 121 °C.

`Nc1cc(Br)ccc1C(=O)NCc1ccc(Br)cc1F` displayed a melting point of 143 to 144 °C.

`CC1=NN(c2cccc(C(=O)O)c2)C(=O)C1=c1[nH]c(=c2[nH]c(=C3C(=O)N(c4cccc(C(=O)O)c4)N=C3C)c3ccccc23)c2ccccc12`: the melting point was greater than 300 °C.

The compound `O=C(c1ccccc1)c1c[nH]c2cnccc12` displayed a melting point of 218 to 220 °C.

On to `O=C(C1CCN(c2ccncc2)CC1)N1CCN(Cc2ccc(Br)cc2)CC1`, for which the melting point was in the range of 148 to 149 °C.

In turn, `CNc1nc(S(=O)(=O)Nc2c(F)cccc2F)nn1-c1ccccc1` registered a melting point of 180 to 181 °C.

In turn, `O=C(CSc1ncc(Br)cn1)c1ccccc1` came in with a melting point of 107 to 109 °C.

On to `COc1cc(-c2csc(C#N)n2)cc(Cl)c1OC`, for which the melting point was 147 to 149 °C.

For `ClCc1cccc2nnsc12`, the melting point lay in the range of 78 to 80 °C.

Compound `COc1ccnc(CCc2nc3cc(I)cnc3[nH]2)c1` showed a melting point of 207 to 208 °C.

Compound `C[C@H](CSC(=O)c1ccccc1)C(=O)N(CC(=O)OC(C)(C)C)C1CCCC1` registered a melting point of 54 to 56 °C.

The compound `O=C(Nc1ccc2cc(CN3CCCC3)cnc2c1)c1ccc(-c2ccccc2)cc1` had a melting point of 192 to 194 °C.

In turn, `CN(C)c1ccc2c(c1)CN(c1cccc(-c3cc(Nc4ccncn4)c(=O)n(C)c3)c1CO)C2=O` had a melting point of 206 to 208 °C.

In the case of `COC(=O)CCCCC(O)c1ccc(CCc2ccccc2)cc1` (centres undefined), the melting point was in the range of 56 to 58 °C.

On to `CC(C)n1nc(-c2cnc(N)nc2-c2ccccc2Cl)ccc1=O`, for which the melting point was in the range of 227 to 228 °C.

For `Cc1cccc(C2(Cn3cncn3)CC(COc3ccccc3[N+](=O)[O-])ON2C)c1` (centres undefined), the melting point is 149 to 152 °C.

As for `CC(=O)OCC1CC(n2c(=S)[nH]c3cc(Cl)c(Cl)cc32)C(OC(C)=O)C1OC(C)=O` (centres undefined), the melting point was in the range of 208 to 209 °C.

Consider `COC(=S)NCc1cn(-c2cc(F)c(N3CCC(=O)CC3)c(F)c2)nn1`, for which the melting point lay within 175 to 176 °C.

`NC(=S)NN=Cc1ncc([N+](=O)[O-])n1Cc1ccccc1` yielded a melting point of 193 to 196 °C.

With `CNn1cc(-c2ccccc2)c2ccccc21`, the melting point lay within 60 to 62 °C.

Compound `O=C1CCC(c2ccc(NC(=O)C3(Cl)CC3)cc2)=NN1` yielded a melting point of 231 to 232 °C.

On to `c1ccc2nc(COc3ccc(NC4CCCC4)cc3)ccc2c1`, for which the melting point came out at 88 °C.

Regarding `COc1ccc(CNn2c(=O)ccc3ccc(N4CCC[C@H]4CO)nc32)cc1Cl`, the melting point fell in the range of 131 to 134 °C.

`Oc1cc(-c2c3ccccc3c(Br)c3sc4ccccc4c23)cc(Br)c1O` displayed a melting point of 212 to 213 °C.

The compound `NC(=S)Nc1nncs1` came in with a melting point of 253 °C.

Turning to `CCOC(=O)c1cc2n(n1)CCOC2`, the melting point was found to be 63 °C.

`O=C(N[C@H]1CC[C@H](CCN2CCC(c3cccc4c3CCO4)CC2)CC1)C1CC1` came in with a melting point of 208 °C.

As to `Cc1cc2c(C)nc(N)nc2o1`, the melting point is 263 to 265 °C.

With `N#CCc1cc(O)cc2nc(-c3ccc(O)cc3)oc12`, the melting point was in the range of 170 to 180 °C.

`CCOC(=O)CCCCOc1ccc([N+](=O)[O-])c(C=C2NC(=O)NC2=O)c1` came in with a melting point of 127 to 129 °C.

On to `CC(=O)OC[C@@H]1C=C[C@H](n2cnc3c(=O)[nH]c(N)nc32)C1`, for which the melting point was in the range of 247 to 249 °C.

In the case of `CCN1CCN(CC(=O)NC2(c3cc4ccccc4o3)C(=O)Nc3cc(Cl)cc(Cl)c32)CC1` (single isomer, unassigned; (+)), the melting point was 192 to 196 °C.

`CN1CCC(OC2c3cccc(-c4cccc(N)c4)c3CCn3cc(-c4ccccc4)nc32)CC1` (centres undefined) had a melting point of 120 °C.

Turning to `COC(=O)c1cc(Br)c2cc(Cc3ccc(F)cc3)cnc2c1O`, the melting point turned out to be 152 °C.

Turning to `CN(O)C(=O)c1ccc(CCCCc2ccccc2C(=O)O)cc1`, the melting point lay within 94 to 95 °C.

Values taken from a melting point compilation (Tetko et al.; mined from patent text by program, amines drawn as free bases though some values may be those of a salt).
